Results from patent US20070129384A1 (priority 2003, published 2007).
Like-named read-outs stand apart in the source and are kept apart here.

Test system: Pyricularia oryzae
Format: in vivo
Settings: individual active compound, protective, rice leaves, evaluated 6 days after inoculation, untreated 89% infection

Structure (SMILES) | Efficacy in % of the untreated control (4 ppm in the spray liquor) [%] | Efficacy in % of the untreated control (16 ppm in the spray liquor) [%] | Efficacy in % of the untreated control (1 ppm in the spray liquor) [%]
COC(=O)Nc1nc2ccccc2[nH]1 [II, methyl (1 H-benzoimidazol-2-yl)carbamate] | 0 | 32 | 
CC1CCN(c2c(-c3c(F)cc(F)cc3F)c(Cl)nc3ncnn23)CC1 [I, 5-chloro-7-(4-methylpiperidin-1-yl)-6-(2,4,6-trifluorophenyl)-[1,2,4]tri-azolo[1,5-a]pyrimidine] |  | 32 | 10
